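These data come from cells grown in 96-well plates and exposed to compound for 48 hours at five concentrations. TGI marks complete inhibition of growth.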
tested on: SW-620 colon; experiment: inhibition of tumour cell growth, NCI panel, 48 h

SMILES | TGI [µM]
CCOC(=O)C1SC(=Nc2ccc(C)c(C)c2)N=C1C (stereo not drawn) | > 100
CCCC1=C(CC)C(C(=O)Nc2c(C)cccc2C)=NC(S)N1 (stereo not drawn) | > 100

tested on: DMS 273 small cell lung; experiment: inhibition of tumour cell growth, NCI panel, 48 h

SMILES | TGI [µM]
Clc1cc(Cl)c2ns[s+]c2c1Cl | > 100
C=C(C)[C@H]1Cc2c(ccc3c2O[C@@H]2COc4cc(OC)c(OC)cc4[C@@H]2C3=O)O1 | 18.3
COC(=O)[C@@]12C(=O)C=CC(=O)C1C1C(=CC2C)OC2OC3(CCCCC3)OC21 (stereo partly drawn) | 36.2
CC1=CCC(O)C=CC(C)C(O)C(C)C=C(C)C(=O)c2c(O)c(C)cc3c2C(=O)C(N)=C(NC(=O)/C=C\C=C/C=CC(C)C(O)CC1=O)C3=O (stereo not drawn) | > 100
COc1ccc(S(=O)(=O)c2ccccc2[N+](=O)[O-])cc1 | > 100
CCOC(=O)C1SC(=Nc2ccc(C)c(C)c2)N=C1C (stereo not drawn) | > 100
CCCC1=C(CC)C(C(=O)Nc2c(C)cccc2C)=NC(S)N1 (stereo not drawn) | > 100

tested on: CAKI-1 renal; experiment: inhibition of tumour cell growth, NCI panel, 48 h

SMILES | TGI [µM]
Clc1cc(Cl)c2ns[s+]c2c1Cl | > 100
C=C(C)[C@H]1Cc2c(ccc3c2O[C@@H]2COc4cc(OC)c(OC)cc4[C@@H]2C3=O)O1 | 63.8
COC(=O)[C@@]12C(=O)C=CC(=O)C1C1C(=CC2C)OC2OC3(CCCCC3)OC21 (stereo partly drawn) | 33.4
CC1=CCC(O)C=CC(C)C(O)C(C)C=C(C)C(=O)c2c(O)c(C)cc3c2C(=O)C(N)=C(NC(=O)/C=C\C=C/C=CC(C)C(O)CC1=O)C3=O (stereo not drawn) | > 100
CCOC(=O)C1SC(=Nc2ccc(C)c(C)c2)N=C1C (stereo not drawn) | > 100
CCCC1=C(CC)C(C(=O)Nc2c(C)cccc2C)=NC(S)N1 (stereo not drawn) | > 100

tested on: NCI-H522 lung; experiment: inhibition of tumour cell growth, NCI panel, 48 h

SMILES | TGI [µM]
Clc1cc(Cl)c2ns[s+]c2c1Cl | > 100
C=C(C)[C@H]1Cc2c(ccc3c2O[C@@H]2COc4cc(OC)c(OC)cc4[C@@H]2C3=O)O1 | 0.404
CC1=CCC(O)C=CC(C)C(O)C(C)C=C(C)C(=O)c2c(O)c(C)cc3c2C(=O)C(N)=C(NC(=O)/C=C\C=C/C=CC(C)C(O)CC1=O)C3=O (stereo not drawn) | 35.3
CCOC(=O)C1SC(=Nc2ccc(C)c(C)c2)N=C1C (stereo not drawn) | > 100
CCCC1=C(CC)C(C(=O)Nc2c(C)cccc2C)=NC(S)N1 (stereo not drawn) | > 100

tested on: DLD-1 colon; experiment: inhibition of tumour cell growth, NCI panel, 48 h

SMILES | TGI [µM]
Clc1cc(Cl)c2ns[s+]c2c1Cl | > 100
C=C(C)[C@H]1Cc2c(ccc3c2O[C@@H]2COc4cc(OC)c(OC)cc4[C@@H]2C3=O)O1 | > 100
COC(=O)[C@@]12C(=O)C=CC(=O)C1C1C(=CC2C)OC2OC3(CCCCC3)OC21 (stereo partly drawn) | 35.7
CC1=CCC(O)C=CC(C)C(O)C(C)C=C(C)C(=O)c2c(O)c(C)cc3c2C(=O)C(N)=C(NC(=O)/C=C\C=C/C=CC(C)C(O)CC1=O)C3=O (stereo not drawn) | > 100
COc1ccc(S(=O)(=O)c2ccccc2[N+](=O)[O-])cc1 | > 100
CCOC(=O)C1SC(=Nc2ccc(C)c(C)c2)N=C1C (stereo not drawn) | > 100
CCCC1=C(CC)C(C(=O)Nc2c(C)cccc2C)=NC(S)N1 (stereo not drawn) | > 100

tested on: T-47D breast; experiment: inhibition of tumour cell growth, NCI panel, 48 h

SMILES | TGI [µM]
C=C(C)[C@H]1Cc2c(ccc3c2O[C@@H]2COc4cc(OC)c(OC)cc4[C@@H]2C3=O)O1 | > 97.1

tested on: SF-295 CNS; experiment: inhibition of tumour cell growth, NCI panel, 48 h

SMILES | TGI [µM]
Clc1cc(Cl)c2ns[s+]c2c1Cl | > 100
C=C(C)[C@H]1Cc2c(ccc3c2O[C@@H]2COc4cc(OC)c(OC)cc4[C@@H]2C3=O)O1 | 38
COC(=O)[C@@]12C(=O)C=CC(=O)C1C1C(=CC2C)OC2OC3(CCCCC3)OC21 (stereo partly drawn) | 32.9
CC1=CCC(O)C=CC(C)C(O)C(C)C=C(C)C(=O)c2c(O)c(C)cc3c2C(=O)C(N)=C(NC(=O)/C=C\C=C/C=CC(C)C(O)CC1=O)C3=O (stereo not drawn) | > 100
COc1ccc(S(=O)(=O)c2ccccc2[N+](=O)[O-])cc1 | > 100
CCOC(=O)C1SC(=Nc2ccc(C)c(C)c2)N=C1C (stereo not drawn) | > 100
CCCC1=C(CC)C(C(=O)Nc2c(C)cccc2C)=NC(S)N1 (stereo not drawn) | > 100

tested on: K-562 leukemia; experiment: inhibition of tumour cell growth, NCI panel, 48 h

SMILES | TGI [µM]
Clc1cc(Cl)c2ns[s+]c2c1Cl | > 100
C=C(C)[C@H]1Cc2c(ccc3c2O[C@@H]2COc4cc(OC)c(OC)cc4[C@@H]2C3=O)O1 | > 72.1
COC(=O)[C@@]12C(=O)C=CC(=O)C1C1C(=CC2C)OC2OC3(CCCCC3)OC21 (stereo partly drawn) | 74.6
CC1=CCC(O)C=CC(C)C(O)C(C)C=C(C)C(=O)c2c(O)c(C)cc3c2C(=O)C(N)=C(NC(=O)/C=C\C=C/C=CC(C)C(O)CC1=O)C3=O (stereo not drawn) | > 100
COc1ccc(S(=O)(=O)c2ccccc2[N+](=O)[O-])cc1 | > 100
CCOC(=O)C1SC(=Nc2ccc(C)c(C)c2)N=C1C (stereo not drawn) | > 100
CCCC1=C(CC)C(C(=O)Nc2c(C)cccc2C)=NC(S)N1 (stereo not drawn) | > 100

tested on: MDA-MB-231 breast; experiment: inhibition of tumour cell growth, NCI panel, 48 h

SMILES | TGI [µM]
C=C(C)[C@H]1Cc2c(ccc3c2O[C@@H]2COc4cc(OC)c(OC)cc4[C@@H]2C3=O)O1 | 44.7

tested on: KM20L2 colon; experiment: inhibition of tumour cell growth, NCI panel, 48 h

SMILES | TGI [µM]
Clc1cc(Cl)c2ns[s+]c2c1Cl | > 100
COC(=O)[C@@]12C(=O)C=CC(=O)C1C1C(=CC2C)OC2OC3(CCCCC3)OC21 (stereo partly drawn) | 38.4
CC1=CCC(O)C=CC(C)C(O)C(C)C=C(C)C(=O)c2c(O)c(C)cc3c2C(=O)C(N)=C(NC(=O)/C=C\C=C/C=CC(C)C(O)CC1=O)C3=O (stereo not drawn) | > 100
COc1ccc(S(=O)(=O)c2ccccc2[N+](=O)[O-])cc1 | > 100
CCOC(=O)C1SC(=Nc2ccc(C)c(C)c2)N=C1C (stereo not drawn) | > 100

— PubChem BioAssay (NCI)
